Test results taken from patent USRE48461E1, “Modulation of androgen receptor expression” (Ionis Pharmaceuticals, Inc., priority 2012, dated 2021).
Oligonucleotides are written 5' to 3', each unit as a sugar letter and its base; * is a phosphorothioate linkage, no mark a phosphodiester; rarer units and linkages stand in square brackets, end groups in braces. Plain capitals give the bases only. k = constrained ethyl (cEt); [5mC] = 5-methylcytosine; d = 2'-deoxy (DNA)

Key:
AR mRNA [1] = experiment: Antisense inhibition of human AR in HuVEC cells, single concentration (electroporation, qRT-PCR RTS3559); format: cell-based
How it was run: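 HuVEC cells electroporated with antisense oligonucleotides at a single concentration. AR mRNA quantified by qRT-PCR using human primer-probe set RTS3559 and normalised to total RNA content by RIBOGREEN.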

AR mRNA [2] = experiment: Dose-dependent antisense inhibition of human AR in HuVEC cells (electroporation, qRT-PCR RTS3559, IC50); format: cell-based; conditions: HuVEC
How it was run: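 HuVEC cells dosed with antisense oligonucleotides by electroporation and treated approximately 16 hours. AR mRNA quantified by real-time qPCR with primer probe set RTS3559 and normalised to total RNA by RIBOGREEN; IC50 from dose-response.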

[3] = Table 25, 1,000 nM oligonucleotide, electroporation, approximately 24 hours, relative to untreated control
[4] = Table 36, electroporation, approximately 16 hours
[5] = Table 34, electroporation, approximately 16 hours
[6] = Table 29, electroporation, approximately 16 hours
[7] = Table 30, electroporation, approximately 16 hours
[8] = Table 31, electroporation, approximately 16 hours

Substance: 584242 (k[5mC]*k[5mC]*kA*dT*dT*dT*dG*dT*dG*d[5mC]*d[5mC]*dA*dA*kA*k[5mC]*k[5mC]; antisense) [compound 584242]
- % inhibition (AR mRNA [1]; [3]): 62%
- percent inhibition of AR, 46.9 nM (AR mRNA [2]; [4]): 12%
- percent inhibition of AR, 187.5 nM (AR mRNA [2]; [4]): 38%
- percent inhibition of AR, 750.0 nM (AR mRNA [2]; [4]): 66%
- percent inhibition of AR, 3000.0 nM (AR mRNA [2]; [4]): 93%
- IC50 (AR mRNA [2]; [4]): 270 nM

Substance: 584165 (kT*k[5mC]*kA*dA*dT*d[5mC]*dT*dA*dG*dA*dT*dA*d[5mC]*k[5mC]*kA*kT; antisense) [compound 584165]
- % inhibition (AR mRNA [1]; Table 24, 1,000 nM oligonucleotide, electroporation, approximately 24 hours, relative to untreated control): 70%
- percent inhibition of AR, 46.9 nM (AR mRNA [2]; [4]): 12%
- percent inhibition of AR, 187.5 nM (AR mRNA [2]; [4]): 34%
- percent inhibition of AR, 750.0 nM (AR mRNA [2]; [4]): 66%
- percent inhibition of AR, 3000.0 nM (AR mRNA [2]; [4]): 89%
- IC50 (AR mRNA [2]; [4]): 300 nM

Substance: 584125 (kG*k[5mC]*k[5mC]*dA*dT*dG*dA*dG*dA*d[5mC]*dA*dG*d[5mC]*kT*kT*kT; antisense) [compound 584125]
- % inhibition (AR mRNA [1]; Table 23, 500 nM oligonucleotide, electroporation, approximately 24 hours, relative to untreated control): 35%
- percent inhibition of AR, 46.9 nM (AR mRNA [2]; [5]): 12%
- percent inhibition of AR, 187.5 nM (AR mRNA [2]; [5]): 12%
- percent inhibition of AR, 750.0 nM (AR mRNA [2]; [5]): 47%
- percent inhibition of AR, 3000.0 nM (AR mRNA [2]; [5]): 76%
- IC50 (AR mRNA [2]; [5]): 720 nM

Substance: 583571 (antisense kT*k[5mC]*kA*dG*dT*d[5mC]*d[5mC]*dT*dA*d[5mC]*d[5mC]*dA*dG*kG*k[5mC]*kA) [compound 583571]
- % inhibition (AR mRNA [1]; 500 nM ASO, ~24 h, Table 16): 43%
- percent inhibition of AR, 46.9 nM (AR mRNA [2]; [6]): 18%
- percent inhibition of AR, 187.5 nM (AR mRNA [2]; [6]): 36%
- percent inhibition of AR, 750.0 nM (AR mRNA [2]; [6]): 53%
- percent inhibition of AR, 3000.0 nM (AR mRNA [2]; [6]): 59%
- IC50 (AR mRNA [2]; [6]): 800 nM

Substance: 583689 (antisense kA*kT*kG*d[5mC]*dG*dG*dT*dA*dG*dT*d[5mC]*dG*d[5mC]*kT*kG*k[5mC]) [compound 583689]
- % inhibition (AR mRNA [1]; 500 nM ASO, ~24 h, Table 18): 39%
- percent inhibition of AR, 46.9 nM (AR mRNA [2]; [7]): 20%
- percent inhibition of AR, 187.5 nM (AR mRNA [2]; [7]): 34%
- percent inhibition of AR, 750.0 nM (AR mRNA [2]; [7]): 62%
- percent inhibition of AR, 3000.0 nM (AR mRNA [2]; [7]): 74%
- IC50 (AR mRNA [2]; [7]): 440 nM

Substance: 584233 (kG*kG*kA*dT*dT*d[5mC]*dT*d[5mC]*dT*dA*d[5mC]*dA*d[5mC]*kA*k[5mC]*kA; antisense) [compound 584233]
- % inhibition (AR mRNA [1]; [3]): 62%
- percent inhibition of AR, 46.9 nM (AR mRNA [2]; [4]): 0%
- percent inhibition of AR, 187.5 nM (AR mRNA [2]; [4]): 30%
- percent inhibition of AR, 750.0 nM (AR mRNA [2]; [4]): 66%
- percent inhibition of AR, 3000.0 nM (AR mRNA [2]; [4]): 86%
- IC50 (AR mRNA [2]; [4]): 390 nM

Substance: 549432 (kG*kA*kG*dG*dA*dT*d[5mC]*dA*dT*d[5mC]*dA*d[5mC]*dA*kG*kA*kT) [compound 549432]
- % inhibition (AR mRNA [1]; 500 nM ASO, electroporation, ~24 h, Table 2): 90%
- percent inhibition of AR (AR mRNA [2]; 55.6 nM, ~16 h, Table 4): 15%
- percent inhibition of AR (AR mRNA [2]; 166.7 nM, ~16 h, Table 4): 46%
- percent inhibition of AR (AR mRNA [2]; 500.0 nM, ~16 h, Table 4): 80%
- percent inhibition of AR (AR mRNA [2]; 1500.0 nM, ~16 h, Table 4): 92%
- IC50 (AR mRNA [2]; ~16 h, Table 4): 179 nM

Substance: 583714 (antisense kT*k[5mC]*k[5mC]*dA*dT*d[5mC]*d[5mC]*dT*dT*dG*dA*dG*d[5mC]*kT*kT*kG) [compound 583714]
- % inhibition (AR mRNA [1]; 500 nM ASO, ~24 h, Table 18): 36%
- percent inhibition of AR, 46.9 nM (AR mRNA [2]; [8]): 22%
- percent inhibition of AR, 187.5 nM (AR mRNA [2]; [8]): 34%
- percent inhibition of AR, 750.0 nM (AR mRNA [2]; [8]): 59%
- percent inhibition of AR, 3000.0 nM (AR mRNA [2]; [8]): 79%
- IC50 (AR mRNA [2]; [8]): 400 nM

Substance: 583584 (antisense k[5mC]*k[5mC]*kG*dA*d[5mC]*dT*dG*dA*dG*dG*d[5mC]*dA*dG*k[5mC]*kT*kG) [compound 583584]
- % inhibition (AR mRNA [1]; 500 nM ASO, ~24 h, Table 16): 44%
- percent inhibition of AR, 46.9 nM (AR mRNA [2]; [6]): 24%
- percent inhibition of AR, 187.5 nM (AR mRNA [2]; [6]): 44%
- percent inhibition of AR, 750.0 nM (AR mRNA [2]; [6]): 52%
- percent inhibition of AR, 3000.0 nM (AR mRNA [2]; [6]): 73%
- IC50 (AR mRNA [2]; [6]): 410 nM
